Measurements published in EP4745135A1 (Gluetacs Therapeutics (Shanghai) Co., Ltd., priority 2023, dated 2025).

What was measured:
GSPT1 = assay: Western blot, degradation of substrate protein in hPBMCs; assay type: cell-based, Human; settings: Western blot, 24 hours of compound treatment, compounds tested at 50 nM and 500 nM (concentration for the table not stated)
[1] = target: T1, human Cereblon WT GST-tagged protein (Homo sapiens, UniProt Q96SW2); assay: CRBN-binding affinity, HTRF (CEREBLON BINDING kit); settings: for inhibition at 0.5 µM: read-out: Inhibition Rate at 0.5 µM (%); for inhibition at 2 µM: read-out: Inhibition Rate at 2 µM (%)
T1 construct: purchased CISBIO 64BDCRBNPEH

CK1α = target: T2, CK1α (Homo sapiens, UniProt P48729+Q96SW2); assay: Western blot, degradation of substrate protein in hPBMCs; assay type: cell-based; settings: Western blot, 24 hours of compound treatment, compounds tested at 50 nM and 500 nM (concentration for the table not stated)
T2 construct: effects of the compounds of the present disclosure on the expression of target proteins in cells; endogenous in cells; host or cells: human PBMCs (Milecell Biotechnologies)

IKZF3 = target: T3, IKZF3 (Homo sapiens, UniProt Q96SW2+Q9UKT9); assay: as above; assay type: cell-based; settings: Western blot, 24 hours of compound treatment, compounds tested at 50 nM and 500 nM (concentration for the table not stated)
T3 construct: effects of the compounds of the present disclosure on the expression of target proteins in cells; endogenous in cells; host or cells: human PBMCs (Milecell Biotechnologies)

IKZF2 = target: T4, IKZF2 (Homo sapiens, UniProt Q96SW2+Q9UKS7); assay: as above; assay type: cell-based; settings: Western blot, 24 hours of compound treatment, compounds tested at 50 nM and 500 nM (concentration for the table not stated)
T4 construct: effects of the compounds of the present disclosure on the expression of target proteins in cells; endogenous in cells; host or cells: human PBMCs (Milecell Biotechnologies)

WEE1 = target: T5, WEE1 (Homo sapiens, UniProt P30291+Q96SW2); assay: as above; assay type: cell-based; settings: Western blot, 24 hours of compound treatment, compounds tested at 50 nM and 500 nM (concentration for the table not stated)
T5 construct: effects of the compounds of the present disclosure on the expression of target proteins in cells; endogenous in cells; host or cells: human PBMCs (Milecell Biotechnologies)

IKZF1 = target: T6, IKZF1 (Homo sapiens, UniProt Q13422+Q96SW2); assay: as above; assay type: cell-based; settings: Western blot, 24 hours of compound treatment, compounds tested at 50 nM and 500 nM (concentration for the table not stated)
T6 construct: effects of the compounds of the present disclosure on the expression of target proteins in cells; endogenous in cells; host or cells: human PBMCs (Milecell Biotechnologies)
T6 sequence (Q13422 whole entry): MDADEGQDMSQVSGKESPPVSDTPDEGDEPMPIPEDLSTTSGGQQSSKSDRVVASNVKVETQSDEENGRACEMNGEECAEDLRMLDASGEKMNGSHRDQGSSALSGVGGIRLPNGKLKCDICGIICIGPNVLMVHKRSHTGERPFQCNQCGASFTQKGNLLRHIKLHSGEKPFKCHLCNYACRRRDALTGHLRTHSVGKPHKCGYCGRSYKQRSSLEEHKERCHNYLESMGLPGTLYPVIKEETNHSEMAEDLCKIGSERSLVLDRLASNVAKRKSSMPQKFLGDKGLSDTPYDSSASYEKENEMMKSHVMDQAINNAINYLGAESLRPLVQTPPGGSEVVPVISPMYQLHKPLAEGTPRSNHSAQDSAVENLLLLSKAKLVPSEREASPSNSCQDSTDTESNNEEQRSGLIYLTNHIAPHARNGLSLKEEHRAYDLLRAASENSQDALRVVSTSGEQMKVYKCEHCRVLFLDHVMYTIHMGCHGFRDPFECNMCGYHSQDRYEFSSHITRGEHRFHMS
T6 sequence (Q96SW2 whole entry): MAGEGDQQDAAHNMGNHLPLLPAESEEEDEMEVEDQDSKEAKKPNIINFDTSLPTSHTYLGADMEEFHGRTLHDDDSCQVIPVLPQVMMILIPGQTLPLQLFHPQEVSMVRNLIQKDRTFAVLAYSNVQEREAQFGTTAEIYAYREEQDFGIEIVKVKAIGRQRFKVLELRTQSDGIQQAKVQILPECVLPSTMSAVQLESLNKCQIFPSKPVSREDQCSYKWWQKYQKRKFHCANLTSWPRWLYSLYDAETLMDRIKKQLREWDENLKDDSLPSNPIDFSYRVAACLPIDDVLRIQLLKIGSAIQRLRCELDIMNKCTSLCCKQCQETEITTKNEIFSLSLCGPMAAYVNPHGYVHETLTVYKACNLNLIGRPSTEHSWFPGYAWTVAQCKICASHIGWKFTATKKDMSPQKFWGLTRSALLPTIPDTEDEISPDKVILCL
T6 sequence (Q16531 whole entry partner): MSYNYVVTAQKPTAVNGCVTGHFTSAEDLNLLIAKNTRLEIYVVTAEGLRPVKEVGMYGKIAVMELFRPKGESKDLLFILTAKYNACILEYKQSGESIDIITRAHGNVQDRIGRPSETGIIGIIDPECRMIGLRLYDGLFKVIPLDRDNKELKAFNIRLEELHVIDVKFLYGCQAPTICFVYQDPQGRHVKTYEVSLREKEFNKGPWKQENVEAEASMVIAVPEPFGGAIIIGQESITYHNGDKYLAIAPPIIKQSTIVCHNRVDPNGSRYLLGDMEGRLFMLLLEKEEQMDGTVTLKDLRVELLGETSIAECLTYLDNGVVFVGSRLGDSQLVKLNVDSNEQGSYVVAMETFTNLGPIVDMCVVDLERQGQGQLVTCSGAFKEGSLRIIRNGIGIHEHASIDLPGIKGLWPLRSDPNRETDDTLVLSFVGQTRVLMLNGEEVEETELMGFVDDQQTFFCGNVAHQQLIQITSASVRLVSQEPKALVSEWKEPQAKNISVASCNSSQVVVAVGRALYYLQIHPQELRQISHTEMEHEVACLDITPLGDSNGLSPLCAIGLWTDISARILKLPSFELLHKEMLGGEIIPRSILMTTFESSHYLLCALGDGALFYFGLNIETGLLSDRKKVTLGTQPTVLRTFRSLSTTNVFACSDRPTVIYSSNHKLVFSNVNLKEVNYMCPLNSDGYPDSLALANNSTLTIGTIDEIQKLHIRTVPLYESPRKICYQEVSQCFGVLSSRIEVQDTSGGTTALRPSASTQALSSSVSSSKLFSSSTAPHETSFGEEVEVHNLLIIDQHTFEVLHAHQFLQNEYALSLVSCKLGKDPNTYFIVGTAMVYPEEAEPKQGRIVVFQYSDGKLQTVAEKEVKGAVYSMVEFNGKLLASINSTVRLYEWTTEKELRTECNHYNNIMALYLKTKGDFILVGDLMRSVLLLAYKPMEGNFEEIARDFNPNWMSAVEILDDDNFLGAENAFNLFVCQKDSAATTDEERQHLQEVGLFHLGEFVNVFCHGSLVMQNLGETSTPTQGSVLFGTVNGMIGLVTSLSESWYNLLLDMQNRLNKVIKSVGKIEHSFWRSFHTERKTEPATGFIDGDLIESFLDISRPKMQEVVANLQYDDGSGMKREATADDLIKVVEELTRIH

T3 sequence (Q9UKT9 whole entry): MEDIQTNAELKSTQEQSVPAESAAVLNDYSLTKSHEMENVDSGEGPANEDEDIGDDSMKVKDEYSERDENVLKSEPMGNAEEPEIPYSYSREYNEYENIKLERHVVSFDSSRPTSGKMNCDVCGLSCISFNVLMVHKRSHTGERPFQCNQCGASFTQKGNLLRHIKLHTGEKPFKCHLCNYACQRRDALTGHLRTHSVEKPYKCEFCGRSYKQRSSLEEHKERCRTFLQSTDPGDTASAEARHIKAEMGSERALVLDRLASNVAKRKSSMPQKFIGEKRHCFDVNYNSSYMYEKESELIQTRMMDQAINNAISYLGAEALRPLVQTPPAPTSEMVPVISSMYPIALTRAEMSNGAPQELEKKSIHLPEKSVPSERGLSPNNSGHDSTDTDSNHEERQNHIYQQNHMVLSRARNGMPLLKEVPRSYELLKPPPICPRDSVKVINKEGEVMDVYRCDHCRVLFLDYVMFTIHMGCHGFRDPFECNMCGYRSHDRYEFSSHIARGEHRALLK
T3 sequence (Q96SW2 whole entry): as the sequence (Q96SW2 whole entry) above
T3 sequence (Q16531 whole entry partner): as the sequence (Q16531 whole entry partner) above
T5 sequence (P30291 whole entry): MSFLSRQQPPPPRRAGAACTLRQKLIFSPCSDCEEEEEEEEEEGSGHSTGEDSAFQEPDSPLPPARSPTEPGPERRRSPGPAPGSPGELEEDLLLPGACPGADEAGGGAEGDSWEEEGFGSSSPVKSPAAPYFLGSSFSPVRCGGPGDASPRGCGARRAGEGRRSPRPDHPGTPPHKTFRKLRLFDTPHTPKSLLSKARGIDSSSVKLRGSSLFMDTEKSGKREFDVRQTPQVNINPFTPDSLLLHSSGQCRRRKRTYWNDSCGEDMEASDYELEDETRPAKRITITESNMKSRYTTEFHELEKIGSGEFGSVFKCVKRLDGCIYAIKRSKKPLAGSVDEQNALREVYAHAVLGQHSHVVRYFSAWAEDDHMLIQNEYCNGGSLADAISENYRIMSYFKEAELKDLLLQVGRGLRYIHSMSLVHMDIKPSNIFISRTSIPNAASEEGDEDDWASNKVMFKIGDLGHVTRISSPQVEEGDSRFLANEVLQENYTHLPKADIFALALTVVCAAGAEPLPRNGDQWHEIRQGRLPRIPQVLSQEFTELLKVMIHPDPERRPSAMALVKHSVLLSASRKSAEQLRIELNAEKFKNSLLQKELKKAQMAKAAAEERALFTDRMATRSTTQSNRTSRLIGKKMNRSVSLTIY
T5 sequence (Q96SW2 whole entry): as the sequence (Q96SW2 whole entry) above
T5 sequence (Q16531 whole entry partner): as the sequence (Q16531 whole entry partner) above
T4 sequence (Q9UKS7 whole entry): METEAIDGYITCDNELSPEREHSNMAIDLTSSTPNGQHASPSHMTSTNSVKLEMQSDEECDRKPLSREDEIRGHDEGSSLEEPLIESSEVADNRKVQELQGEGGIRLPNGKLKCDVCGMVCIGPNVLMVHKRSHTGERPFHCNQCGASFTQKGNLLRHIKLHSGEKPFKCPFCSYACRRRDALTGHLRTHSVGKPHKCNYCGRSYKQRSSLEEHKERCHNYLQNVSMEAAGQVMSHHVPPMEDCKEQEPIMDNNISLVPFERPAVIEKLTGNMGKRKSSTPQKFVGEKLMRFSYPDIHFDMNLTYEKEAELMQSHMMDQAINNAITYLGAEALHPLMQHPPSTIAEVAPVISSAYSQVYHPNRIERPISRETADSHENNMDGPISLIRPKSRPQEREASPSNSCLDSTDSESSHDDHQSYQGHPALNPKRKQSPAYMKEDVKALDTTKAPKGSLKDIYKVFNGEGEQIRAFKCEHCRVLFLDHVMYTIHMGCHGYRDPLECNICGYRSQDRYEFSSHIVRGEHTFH
T4 sequence (Q96SW2 whole entry): as the sequence (Q96SW2 whole entry) above
T4 sequence (Q16531 whole entry partner): as the sequence (Q16531 whole entry partner) above
T2 sequence (P48729 whole entry): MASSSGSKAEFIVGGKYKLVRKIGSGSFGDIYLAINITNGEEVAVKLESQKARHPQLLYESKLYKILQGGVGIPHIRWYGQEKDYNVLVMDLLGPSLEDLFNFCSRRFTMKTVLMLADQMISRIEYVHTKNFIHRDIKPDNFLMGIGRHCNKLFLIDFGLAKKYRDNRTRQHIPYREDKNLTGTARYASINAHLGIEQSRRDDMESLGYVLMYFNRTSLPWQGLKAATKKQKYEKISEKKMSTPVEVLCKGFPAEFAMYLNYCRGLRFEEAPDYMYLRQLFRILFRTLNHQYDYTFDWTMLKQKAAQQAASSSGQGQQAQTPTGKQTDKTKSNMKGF
T2 sequence (Q96SW2 whole entry): as the sequence (Q96SW2 whole entry) above
T2 sequence (Q16531 whole entry partner): as the sequence (Q16531 whole entry partner) above
T1 sequence (Q96SW2 whole entry): as the sequence (Q96SW2 whole entry) above

SMILES | inhibition at 0.5 µM [1] [%] | inhibition at 2 µM [1] [%] | GSPT1 substrate protein remaining % (GSPT1) | CK1α substrate protein remaining % (CK1α) | IKZF3 substrate protein remaining % (IKZF3) | IKZF2 substrate protein remaining % (IKZF2) | Wee1 substrate protein remaining % (WEE1) | IKZF 1 substrate protein remaining % (IKZF1)
O=C1CCC(N2Cc3c(CN4CCN(c5ncnc(Cl)c5Cl)CC4)cccc3C2=S)C(=O)N1 (centres unmarked) [GT-08814, 3-(4-((4-(5,6-dichloropyrimidin-4-yl)piperazin-1-yl)methyl)-1-thioxoisoindolin-2-yl)piperidine-2,6-dione] | 60 to 80 | 80 to 100 | B (80%< substrate protein remaining %≤ 100%) | B (80%< substrate protein remaining %≤ 100%) | B (80%< substrate protein remaining %≤ 100%) | A (0% ≤ substrate protein remaining % ≤ 80%) | B (80%< substrate protein remaining %≤ 100%) | B (80%< substrate protein remaining %≤ 100%)
O=C1CCC(N2Cc3c(CN4CCN(c5cnnc(Cl)c5Cl)CC4)cccc3C2=S)C(=O)N1 (centres unmarked) [GT-08815, 3-(4-((4-(5,6-dichloropyridazin-4-yl)piperazin-1-yl)methyl)-1-thioxoisoindolin-2-yl)piperidine-2,6-dione] | 60 to 80 | 80 to 100 | B (80%< substrate protein remaining %≤ 100%) | B (80%< substrate protein remaining %≤ 100%) | B (80%< substrate protein remaining %≤ 100%) | B (80%< substrate protein remaining %≤ 100%) | A (0% ≤ substrate protein remaining % ≤ 80%) | B (80%< substrate protein remaining %≤ 100%)
O=C1CCC(N2Cc3c(CN4CCN(c5c[nH]c6ncccc56)CC4)cccc3C2=S)C(=O)N1 (centres unmarked) [GT-08841, 3-(4-((4-(1H-pyrrolo[2,3-b]pyridin-3-yl)piperazin-1-yl)methyl)-1-thioxoisoindolin-2-yl)piperidine-2,6-dione] | 60 to 80 | 80 to 100 | A (0% ≤ substrate protein remaining % ≤ 80%) | B (80%< substrate protein remaining %≤ 100%) | B (80%< substrate protein remaining %≤ 100%) | B (80%< substrate protein remaining %≤ 100%) | A (0% ≤ substrate protein remaining % ≤ 80%) | B (80%< substrate protein remaining %≤ 100%)
O=C1CCC(N2Cc3c(CN4CCC(n5cnc6cc(F)ccc65)CC4)cccc3C2=S)C(=O)N1 (centres unmarked) [GT-08842, 3-(4-((4-(5-fluoro-1H-benzo[d]imidazol-1-yl)piperidin-1-yl)methyl)-1-thioxoisoindolin-2-yl)piperidine-2,6-dione] | 40 to 53 | 80 to 100 | B (80%< substrate protein remaining %≤ 100%) | B (80%< substrate protein remaining %≤ 100%) | B (80%< substrate protein remaining %≤ 100%) | B (80%< substrate protein remaining %≤ 100%) | A (0% ≤ substrate protein remaining % ≤ 80%) | B (80%< substrate protein remaining %≤ 100%)
Cn1cc(C2CCN(Cc3cccc4c3CN(C3CCC(=O)NC3=O)C4=S)CC2)c2ccc(F)cc21 (centres unmarked) [GT-08844, 3-(4-((4-(6-fluoro-1-methyl-1H-indol-3-yl)piperidin-1-yl)methyl)-1-thioxoisoindolin-2-yl)piperidine-2,6-dione] | 40 to 53 | 60 to 80 | B (80%< substrate protein remaining %≤ 100%) | B (80%< substrate protein remaining %≤ 100%) | B (80%< substrate protein remaining %≤ 100%) | B (80%< substrate protein remaining %≤ 100%) | A (0% ≤ substrate protein remaining % ≤ 80%) | B (80%< substrate protein remaining %≤ 100%)
O=C1CCC(N2Cc3c(CN4CCC(c5c[nH]c6ncccc56)CC4)cccc3C2=S)C(=O)N1 (centres unmarked) [GT-08848, 3-(4-((4-(1H-pyrrolo[2,3-b]pyridin-3-yl)piperidin-1-yl)methyl)-1-thioxoisoindolin-2-yl)piperidine-2,6-dione] | 30 to 40 | 80 to 100 | B (80%< substrate protein remaining %≤ 100%) | B (80%< substrate protein remaining %≤ 100%) | B (80%< substrate protein remaining %≤ 100%) | B (80%< substrate protein remaining %≤ 100%) | A (0% ≤ substrate protein remaining % ≤ 80%) | B (80%< substrate protein remaining %≤ 100%)
O=C1CCC(N2Cc3c(CN4CCC(c5n[nH]c6cc(F)ccc56)CC4)cccc3C2=S)C(=O)N1 (centres unmarked) [GT-08849, 3-(4-((4-(6-fluoro-1H-indazol-3-yl)piperidin-1-yl)methyl)-1-thioxoisoindolin-2-yl)piperidine-2,6-dione] | 60 to 80 | 80 to 100 | A (0% ≤ substrate protein remaining % ≤ 80%) | B (80%< substrate protein remaining %≤ 100%) | B (80%< substrate protein remaining %≤ 100%) | B (80%< substrate protein remaining %≤ 100%) | A (0% ≤ substrate protein remaining % ≤ 80%) | B (80%< substrate protein remaining %≤ 100%)

Further lines, with some results ahead:

inhibition at 0.5 µM [1] [%] | inhibition at 2 µM [1] [%] | SMILES | GSPT1 substrate protein remaining % (GSPT1) | CK1α substrate protein remaining % (CK1α) | IKZF3 substrate protein remaining % (IKZF3) | IKZF2 substrate protein remaining % (IKZF2) | Wee1 substrate protein remaining % (WEE1) | IKZF 1 substrate protein remaining % (IKZF1)
53 to 60 | 60 to 80 | O=C1CCC(N2Cc3c(CN4CCN(c5noc6cc(F)ccc56)CC4)cccc3C2=S)C(=O)N1 (centres unmarked) [GT-08818, 3-(4-((4-(6-fluorobenzo[d]isoxazol-3-yl)piperazin-1-yl)methyl)-1-thioxoisoindolin-2-yl)piperidine-2,6-dione] | A (0% ≤ substrate protein remaining % ≤ 80%) | B (80%< substrate protein remaining %≤ 100%) | B (80%< substrate protein remaining %≤ 100%) | B (80%< substrate protein remaining %≤ 100%) | A (0% ≤ substrate protein remaining % ≤ 80%) | B (80%< substrate protein remaining %≤ 100%)
53 to 60 | 80 to 100 | O=C1CCC(N2Cc3c(CN4CCN(c5noc6ccncc56)CC4)cccc3C2=S)C(=O)N1 (centres unmarked) [GT-08838, 3-(4-((4-(isoxazolo[4,5-c]pyridin-3-yl)piperazin-1-yl)methyl)-1-thioxoisoindolin-2-yl)piperidine-2,6-dione] | A (0% ≤ substrate protein remaining % ≤ 80%) | B (80%< substrate protein remaining %≤ 100%) | B (80%< substrate protein remaining %≤ 100%) | B (80%< substrate protein remaining %≤ 100%) | A (0% ≤ substrate protein remaining % ≤ 80%) | B (80%< substrate protein remaining %≤ 100%)
60 to 80 | 80 to 100 | O=C1CCC(N2Cc3c(CN4CCN(c5nsc6cc(F)ccc56)CC4)cccc3C2=S)C(=O)N1 (centres unmarked) [GT-08839, 3-(4-((4-(6-fluorobenzo[d]isothiazol-3-yl)piperazin-1-yl)methyl)-1-thioxoisoindolin-2-yl)piperidine-2,6-dione] | B (80%< substrate protein remaining %≤ 100%) | B (80%< substrate protein remaining %≤ 100%) | B (80%< substrate protein remaining %≤ 100%) | B (80%< substrate protein remaining %≤ 100%) | A (0% ≤ substrate protein remaining % ≤ 80%) | B (80%< substrate protein remaining %≤ 100%)
